Experiment: solvent given as SMILES

For `Cc1c(C2=[N+]3C(=Cc4c(C)c5ccccc5n4[B-]3(F)F)c3ccccc32)[nH]c2ccccc12`, the fluorescence lifetime (in ClCCl) was 1.22 ns.
`CCCCCCCCCCCCn1nnc(-c2ccc(C#Cc3ccc(C#Cc4ccc(-c5nnn(CCCCCCCCCCCC)n5)cc4)c4nc5c6ccccc6c6ccccc6c5nc34)cc2)n1` showed a fluorescence lifetime (in C1CCOC1) of 2.54 ns, a fluorescence lifetime (in Cc1ccccc1) of 3.55 ns and a fluorescence lifetime (in ClCCl) of 4.82 ns.
Compound `c1ccc(-c2c3c(c(-c4ccccc4)c4cc5ccccc5cc24)Cc2c(c(-c4ccccc4)c4cc5ccccc5cc4c2-c2ccccc2)C3)cc1` has a fluorescence lifetime (in CC#N) of 6.87 ns, a fluorescence lifetime (in CCCCCC) of 3.8 ns and a fluorescence lifetime (in CO) of 3.68 ns. For the same compound, the fluorescence lifetime (in Cc1ccccc1) was 3.24 ns and the fluorescence lifetime (in ClCCl) was 2.58 ns.
Work on `N#Cc1ccc2cc[nH]c2c1` yielded a fluorescence lifetime (in C1CCOC1) of 3.7 ns, a fluorescence lifetime (in C1COCCO1) of 3.9 ns and a fluorescence lifetime (in CC#N) of 3.8 ns. The fluorescence lifetime (in CC(C)O) was 3.7 ns, the fluorescence lifetime (in CCO) was 3.7 ns and the fluorescence lifetime (in CO) was 3.5 ns. For the same compound, the fluorescence lifetime (in CS(C)=O) was 4.3 ns, the fluorescence lifetime (in NC=O) was 4.2 ns and the fluorescence lifetime (in O) was 0.6 ns. The fluorescence lifetime (in OCC(F)(F)F) was 0.8 ns, the fluorescence lifetime (in [2H]OC([2H])([2H])C(F)(F)F) was 1.1 ns and the fluorescence lifetime (in [2H]O[2H]) was 0.8 ns.
Compound `Fc1ccc(N(c2ccccc2)c2ccc3ccc4c(N(c5ccccc5)c5ccc(F)cc5)ccc5ccc2c3c54)cc1` has a fluorescence lifetime (in ClCCl) of 5.5 ns.
With `c1ccc2cc3cnccc3cc2c1` the fluorescence lifetime (in CCO) was 20 ns.
`CN(C)c1ccc(/C=C/c2cc[n+](C)cc2)cc1` gave a fluorescence lifetime (in ClC(Cl)Cl) of 0.153 ns.
Compound `CN(C)c1ccc(C(=O)c2ccccc2)cc1` has a fluorescence lifetime (in C1CCCCC1) of 0.1 ns, a fluorescence lifetime (in CC#N) of 0.16 ns and a fluorescence lifetime (in CO) of 0.0052 ns. The fluorescence lifetime (in CS(C)=O) was 0.1 ns and the fluorescence lifetime (in c1ccccc1) was 0.9 ns.
`CCCCCCCCCCCCN1C(=O)c2c(c3ccc4cc(-c5ccc(C)cc5)c(OC)cc4c3c3c2ccc2cc(-c4ccc(C)cc4)c(OC)cc23)C1=O` showed a fluorescence lifetime (in ClCCl) of 6.2 ns.
For `CC1=[N+]2C(=C(c3ccc(C=O)cc3)c3ccc(C)n3[B-]2(F)F)C=C1c1cc2n(c1)[B-](F)(F)[N+]1=CC=CC1=C2c1c(C)cc(C)cc1C`, the fluorescence lifetime (in C1CCCCC1) was 2.7 ns and the fluorescence lifetime (in CCOC(C)=O) was 0.9 ns.
For `NC(=O)C1=CN([C@H]2C[C@H](O)[C@@H](COP(=O)([O-])OP(=O)([O-])OC[C@H]3O[C@@H](n4cnc5c(N)ncnc54)C[C@@H]3O)O2)C=CC1`, the fluorescence lifetime (in O) was 0.4 ns.
In the case of `c1ccc(Nc2nc(Nc3ccccc3)nc(Nc3ccc4cc5ccccc5cc4c3)n2)cc1`, the fluorescence lifetime (in C1COCCO1) is reported as 13.3 ns and the fluorescence lifetime (in CCOC(C)=O) is reported as 9 ns.
Compound `CSc1nc(-c2ccc(-n3c4ccccc4c4ccccc43)cc2)cc(-c2ccc(-n3c4ccccc4c4ccccc43)cc2)n1` has a fluorescence lifetime (in C1CCOC1) of 3.22 ns, a fluorescence lifetime (in CN(C)C=O) of 7.39 ns and a fluorescence lifetime (in Cc1ccccc1) of 1.45 ns. The fluorescence lifetime (in ClC(Cl)Cl) was 3.24 ns.
For `CN(C)c1ccc(-c2nc3cccnc3[nH]2)cc1`, the fluorescence lifetime (in C1CCCCC1) was 1.08 ns and the fluorescence lifetime (in CC#N) was 1.58 ns.
`COC(=O)c1ccccc1-c1c2ccc(=[NH2+])cc-2oc2cc(N)ccc12` gave a fluorescence lifetime (in CC#N) of 4.1 ns, a fluorescence lifetime (in CCO) of 3.99 ns and a fluorescence lifetime (in CN(C)C=O) of 3.74 ns. The fluorescence lifetime (in O) was 4.2 ns.
`CCN(CC)c1ccc2cc(C#N)/c(=N\C(=O)C(C)C)oc2c1` showed a fluorescence lifetime (in ClCCl) of 3.1 ns.
Work on `Clc1ncc(-c2c3ccccc3c(-c3cnc(Cl)nc3)c3ccccc23)cn1` yielded a fluorescence lifetime (in CCO) of 2.1 ns and a fluorescence lifetime (in ClCCl) of 6.2 ns.
For `CCCCCCCCCCCCCCCCOc1cc(C#Cc2ccc3ccccc3c2-c2c(C#Cc3cc(OCCCCCCCCCCCCCCCC)c(C#Cc4ccc(C=C(C#N)C#N)cc4)cc3OCCCCCCCCCCCCCCCC)ccc3ccccc23)c(OCCCCCCCCCCCCCCCC)cc1C#Cc1ccc(C=C(C#N)C#N)cc1`, the fluorescence lifetime (in Brc1ccccc1) was 2.8 ns, the fluorescence lifetime (in C1CCCCC1) was 2.02 ns and the fluorescence lifetime (in C1CCOC1) was 1.25 ns. It also gave a fluorescence lifetime (in C1COCCO1) of 3.06 ns, a fluorescence lifetime (in CCCCCC) of 2.15 ns and a fluorescence lifetime (in CCCCCCCCO) of 0.79 ns. The fluorescence lifetime (in CCCCOCCCC) was 2.74 ns, the fluorescence lifetime (in CCOC(C)=O) was 1.51 ns and the fluorescence lifetime (in CCOCC) was 3.29 ns. The fluorescence lifetime (in Cc1ccccc1) was 2.59 ns, the fluorescence lifetime (in ClC(Cl)(Cl)Cl) was 2.16 ns and the fluorescence lifetime (in ClC(Cl)Cl) was 2.35 ns. The fluorescence lifetime (in ClCCl) was 0.79 ns.
`c1ccc(-c2c3ccccc3c(-c3cncnc3)c3ccccc23)cc1` gave a fluorescence lifetime (in CCO) of 3.5 ns and a fluorescence lifetime (in ClCCl) of 6.9 ns.
With `CC1=[N+]2C(=C(c3ccc(N(C)C)cc3)c3ccc(C)n3[B-]2(F)F)C=C1` the fluorescence lifetime (in C1CCCCC1) was 2.72 ns and the fluorescence lifetime (in Cc1ccccc1) was 3.24 ns.
Work on `COc1ccc2cc3c(C)cc(=O)oc3cc2c1` yielded a fluorescence lifetime (in CC#N) of 0.35 ns, a fluorescence lifetime (in CCO) of 4.2 ns and a fluorescence lifetime (in CCOC(C)=O) of 0.066 ns. It also gave a fluorescence lifetime (in CO) of 6.7 ns, a fluorescence lifetime (in ClC(Cl)Cl) of 0.57 ns and a fluorescence lifetime (in OCC(F)(F)F) of 13 ns.

Source: the Deep4Chem optical property database
